For 1 molecule, ATP production results are on record in patent US10201499B2, “Nanoparticle formulation” (United Kingdom Research and Innovation, priority 2012, dated 2019).

The experiment has as its system HT-29 cells. To be noted: 5 mM; p<0.01 vs control. How it is done: FIG. 20. Mitochondrial calorimetry. HT-29 cells were treated with acetate (5 mM) or without (Control) and assessed for ATP production by the Seahorse assay in vitro.

Turning to `CC(=O)O` [Acetate], the ATP production entry was “significantly increase”.
